Source: ChEMBL document CHEMBL1201862, “PubChem BioAssay data set” (2004)
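Interpolation was linear, between the two tested concentrations surrounding the appropriate level; five concentrations were tested over 48 hours in 96-well plates. At the GI50, growth is halved.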 Active and inactive are the calls of the source. Rule as the data show it: active = GI50 up to about 1.1 µM and inactive = higher.

Legend:
Test in all cases: NCI anticancer screen, dose series, 48 h
[1] = test system: HCC 2998
[2] = test system: KM12
[3] = test system: M14
[4] = test system: NCI-H226
[5] = test system: SF-295
[6] = test system: HOP-92
[7] = test system: COLO 205
[8] = test system: MOLT-4
[9] = test system: NCI-H23
[10] = test system: OVCAR-8
[11] = test system: DU-145
[12] = test system: NCI-H460
[13] = test system: Malme-3M
[14] = test system: EKVX
[15] = test system: HCT-116
[16] = test system: SNB-19
[17] = test system: UACC-257
[18] = test system: CAKI-1
[19] = test system: SK-MEL-28

Row | Structure (SMILES) | GI50 [1] | GI50 [2] | GI50 [3] | GI50 [4] | GI50 [5] | GI50 [6] | GI50 [7] | GI50 [8] | GI50 [9] | GI50 [10] | GI50 [11] | GI50 [12] | GI50 [13] | GI50 [14] | GI50 [15] | GI50 [16] | GI50 [17] | GI50 [18] | GI50 [19]
1 | O=C(NC1(C(=O)NNc2nnc(-c3ccccc3)c(-c3ccccc3)n2)C(c2ccccc2)C(c2ccccc2)=NN1c1ccccc1)c1ccccc1 (stereo not given) | 63.4 µM (inactive) | > 100 µM (inactive) | > 100 µM (inactive) | > 100 µM (inactive) | > 100 µM (inactive) | 73.1 µM (inactive) | > 100 µM (inactive) | > 100 µM (inactive) | > 100 µM (inactive) | > 100 µM (inactive) | > 100 µM (inactive) | > 100 µM (inactive) | 64.1 µM (inactive) | > 100 µM (inactive) | > 100 µM (inactive) | > 100 µM (inactive) | > 100 µM (inactive) | > 100 µM (inactive) | 
2 | COc1cc2nc(-c3cccs3)nc(N3C(c4ccc(O)cc4)=NNC(=O)c4ccccc43)c2cc1OC | 18.6 µM (inactive) | 32.7 µM (inactive) | 29.5 µM (inactive) | 23.3 µM (inactive) | 19.5 µM (inactive) |  | 20.8 µM (inactive) |  | 27.5 µM (inactive) | 36.1 µM (inactive) | 4.54 µM (inactive) | 26.5 µM (inactive) | 21.1 µM (inactive) | 3.9 µM (inactive) | 32.4 µM (inactive) | 35.6 µM (inactive) | 28.4 µM (inactive) | 22.2 µM (inactive) | 25.4 µM (inactive)
3 | CC[C@@]1(O)C(=O)OCc2c1cc1n(c2=O)Cc2cc3cc4c(cc3nc2-1)OCO4 | 0.0238 µM (active) |  | < 0.001 µM (active) | 0.00168 µM (active) | < 0.001 µM (active) | 0.0026 µM (active) | 0.0439 µM (active) | < 0.001 µM (active) | 0.00114 µM (active) | 0.00189 µM (active) | < 0.001 µM (active) | < 0.001 µM (active) | 0.00497 µM (active) | 0.0881 µM (active) | 0.00167 µM (active) | 0.00152 µM (active) | 0.054 µM (active) | 0.00173 µM (active) | 0.0188 µM (active)
4 | N=C(N)Nc1ccc(CC(N)C(=O)NCC(=O)C(CC(=O)O)c2ncc(NC(=O)C(F)(F)F)o2)cc1 (stereo not given) | > 25 µM (inactive) | > 25 µM (inactive) | > 25 µM (inactive) | > 25 µM (inactive) | > 25 µM (inactive) |  | > 25 µM (inactive) |  | > 25 µM (inactive) | > 25 µM (inactive) | > 25 µM (inactive) | > 25 µM (inactive) | > 25 µM (inactive) | > 25 µM (inactive) | > 25 µM (inactive) |  | > 25 µM (inactive) | > 25 µM (inactive) | > 25 µM (inactive)
5 | Nc1nc(Nc2cc(F)c(Cl)c(F)c2)cc(=O)[nH]1 | 15.9 µM (inactive) | 27 µM (inactive) | 41.5 µM (inactive) | > 100 µM (inactive) | 44.9 µM (inactive) | 77.3 µM (inactive) | > 100 µM (inactive) | 55.6 µM (inactive) | 95.9 µM (inactive) | > 100 µM (inactive) | > 100 µM (inactive) | > 100 µM (inactive) | > 100 µM (inactive) | 61.1 µM (inactive) | 74.3 µM (inactive) | 37 µM (inactive) | > 100 µM (inactive) | > 100 µM (inactive) | > 100 µM (inactive)
6 | Nc1nc(N)nc(-c2cnccn2)n1 | > 100 µM (inactive) | > 100 µM (inactive) | > 100 µM (inactive) | > 100 µM (inactive) | > 100 µM (inactive) | > 100 µM (inactive) | > 100 µM (inactive) | > 100 µM (inactive) | > 100 µM (inactive) | > 100 µM (inactive) | > 100 µM (inactive) | > 100 µM (inactive) | > 100 µM (inactive) | > 100 µM (inactive) | > 100 µM (inactive) | > 100 µM (inactive) | > 100 µM (inactive) | > 100 µM (inactive) | > 100 µM (inactive)
7 | COc1cc2c(c(OC)c1OC)[C@@H]1CCCCC[C@@H]1CCC2=O | > 100 µM (inactive) | 99.1 µM (inactive) | > 100 µM (inactive) | > 100 µM (inactive) | > 100 µM (inactive) | 82.6 µM (inactive) | > 48.6 µM (inactive) | 24 µM (inactive) | > 100 µM (inactive) | > 100 µM (inactive) |  | > 58.6 µM (inactive) | > 100 µM (inactive) | > 100 µM (inactive) | 57.1 µM (inactive) | > 100 µM (inactive) | 59.7 µM (inactive) | > 100 µM (inactive) | > 100 µM (inactive)
8 | O=C1NC(c2ccc3ccccc3c2)Nc2ccccc21 (stereo not given) | 51.9 µM (inactive) | 21.1 µM (inactive) | 35.9 µM (inactive) | 32.1 µM (inactive) | 35.3 µM (inactive) | 36.7 µM (inactive) | 26.3 µM (inactive) |  | 24.5 µM (inactive) | 33.4 µM (inactive) | 49.5 µM (inactive) | 25.3 µM (inactive) |  | 45.6 µM (inactive) | 33.1 µM (inactive) | 51.8 µM (inactive) | 57.9 µM (inactive) | 59.7 µM (inactive) | > 100 µM (inactive)
9 | COc1ccc2nc(NC(=O)C(=O)C(C#N)c3ccc([N+](=O)[O-])cc3)sc2c1 (stereo not given) | > 100 µM (inactive) | > 100 µM (inactive) | > 100 µM (inactive) | > 100 µM (inactive) | > 100 µM (inactive) | > 100 µM (inactive) | > 100 µM (inactive) | 38.3 µM (inactive) | > 100 µM (inactive) | > 100 µM (inactive) |  | > 100 µM (inactive) | > 100 µM (inactive) | 31.9 µM (inactive) | > 100 µM (inactive) | > 100 µM (inactive) | > 100 µM (inactive) | > 100 µM (inactive) | > 100 µM (inactive)
10 | CCCC[C@H](CCc1ccccc1)N(C(=O)OC)N1CCC[C@H]1COC | 14.6 µM (inactive) | 18.8 µM (inactive) | 26 µM (inactive) | 20.2 µM (inactive) | 18.7 µM (inactive) | 18.6 µM (inactive) | 16.3 µM (inactive) | 24.2 µM (inactive) | 17.2 µM (inactive) | 27.5 µM (inactive) |  | 17.1 µM (inactive) | 16.3 µM (inactive) | 17.5 µM (inactive) | 13.6 µM (inactive) | 16.4 µM (inactive) | 18 µM (inactive) | 29.9 µM (inactive) | 19.9 µM (inactive)
11 | OCC(O)COCn1cc(Cn2ncc3c(SCc4ccccc4)ncnc32)nn1 (stereo not given) | > 100 µM (inactive) | > 100 µM (inactive) | > 100 µM (inactive) | > 100 µM (inactive) | > 100 µM (inactive) | > 100 µM (inactive) | > 100 µM (inactive) | > 100 µM (inactive) | > 100 µM (inactive) | > 100 µM (inactive) | > 100 µM (inactive) |  |  | > 100 µM (inactive) | > 100 µM (inactive) | > 100 µM (inactive) | > 100 µM (inactive) | > 100 µM (inactive) | > 100 µM (inactive)
